{
  "source": "patent US10568854B2",
  "about": "“Compositions and methods for treating kabuki syndrome and related disorders” (THE JOHNS HOPKINS UNIVERSITY, priority 2014, dated 2020)",
  "key": {"Klf10 expression": {"tested_on": "Klf10 expression", "assay": "Real-time PCR of Kmt2d target gene Klf10 in spleen cells", "format": "in vivo, mouse", "conditions": "Kmt2d^+/βGeo mice", "experimental": "Real time PCR: Real-time PCR was performed using Kmt2d-specific probes for exons 20 and 52 (Mm_02600438 and Mm_01717664, respectively) from TaqMan® Gene Expression Assays (Life Technologies, Carlsbad, Calif.). For a comparison of transfection efficiencies for indicator constructs in transient transfection studies, real-time PCR was performed using SYBR Green Real-Time PCR Master Mix (Life Technologies, Carlsbad, Calif.) and primers IND-F-([…]; SEQ ID NO: 5) and IND-R-([…]; SEQ ID NO: 6) that are specific for the H3K4 methylation indicator. For expression analysis for KMT2D target gene KLF10, real-time PCR was performed using Klf10-specific expression assay (Mm00449812_m1) from TaqMan® Gene Expression Assays (Life Technologies, Carlsbad, Calif.)."}, "[1]": {"tested_on": "genome-wide H3K4me3 in spleen cells", "assay": "ChIP-seq of H3K4me3 in spleen cells", "format": "in vivo, mouse", "conditions": "10 mg/kg/day, Kmt2d^+/βGeo mice", "experimental": "ChIP-seq: Spleens were dissected from eight mice, four from each kmt2d genotype (+/βGeo or +/+) where half of each genotype was treated with AR-42 and half with vehicle only. Spleens were minced and passed through a […] cell strainer to obtain single cell suspensions. 10 million cells were used for each ChIP-seq experiment following the native chromatin immunoprecipitation protocol, as previously described (Gilfillan et al. (2012) BMC Genomics 13:645), using a ChIP-grade antibody against H3K4me3 (9727, Cell Signaling Technology, Beverly, Mass.).\nChIP-seq data analysis: Sequencing was performed using a MiSeq system (Illumina, San Diego, Calif.). 4.8-9.6 million paired-end 26 by reads were obtained per sample (Table 2; nReads=number of reads, alignRate=fraction aligned to genome; FRIP=fraction of reads in peaks). Reads were aligned to the m. musculus genome, version mm10, using Bowtie 2 (Langmead and Salzberg (2012) Nat. Methods. 9: 357-9). Each sample was examined with regard to alignment rate as well as FRIP (fraction of reads in peaks), a measure of the ChIP efficiency (Table 2). […] For analysis, reads were merged into one meta-sample and peak calling was performed using MACS version 1.4.2 (Zhang et al. (2008) Genome Biol. 9: R137). […] This created a peak by sample matrix of read counts. […] Fold change and overall abundance was calculated as per edgeR. […]"}},
  "note": "“Also recorded” adds a separate entry of the source.",
  "data": [
    {"compound": "CC(C)[C@H](C(=O)Nc1ccc(C(=O)NO)cc1)c1ccccc1", "note": "[AR-42, (S)—N-hydroxy-4-(3-methyl-2-phenylbutanamido)benzamide]", "values": [
      {"measurement": "Klf10 expression in spleen cells", "setting": "Klf10 expression", "value": "normalization of expression of Klf10; also recorded: normalized"},
      {"measurement": "genome-wide H3K4me3 (ChIP-seq)", "setting": "[1]", "value": "genome-wide increase in H3K4me3; also recorded: improved"}
    ]}
  ]
}
